Reference: patent US11376229B2, “Method of treating or preventing neurodegeneration” (Reprise Pharmaceuticals, Inc., priority 2011, dated 2022)

How the values were obtained:
TRPM4 = TRPM4 (Homo sapiens, UniProt Q8TD43); settings: reported by Damien et al. 2007; Becerra et al. 2011; cited from earlier work
WT EAE mice [1] = experiment: Immunohistochemical count of axons (SMI 31/SMI 32) and neuronal somata (NeuN) in cervical spinal cord of EAE mice; type: in vivo; settings: 30 days post immunization, vs vehicle control
Trpm4−/− EAE mice = experiment: EAE clinical disability scores in Trpm4-/- mice treated with glibenclamide; type: in vivo; settings: 10 μg daily i.p. from day 8, vs DMSO control
WT EAE mice [2] = experiment: EAE clinical disability scores, MOG35-55-immunized mice treated with glibenclamide; type: in vivo; settings: 10 μg daily i.p. from first clinical symptoms (day 8), vs vehicle (DMSO) control, P<0.05

Sequence of TRPM4 (Q8TD43 whole entry, species assumed): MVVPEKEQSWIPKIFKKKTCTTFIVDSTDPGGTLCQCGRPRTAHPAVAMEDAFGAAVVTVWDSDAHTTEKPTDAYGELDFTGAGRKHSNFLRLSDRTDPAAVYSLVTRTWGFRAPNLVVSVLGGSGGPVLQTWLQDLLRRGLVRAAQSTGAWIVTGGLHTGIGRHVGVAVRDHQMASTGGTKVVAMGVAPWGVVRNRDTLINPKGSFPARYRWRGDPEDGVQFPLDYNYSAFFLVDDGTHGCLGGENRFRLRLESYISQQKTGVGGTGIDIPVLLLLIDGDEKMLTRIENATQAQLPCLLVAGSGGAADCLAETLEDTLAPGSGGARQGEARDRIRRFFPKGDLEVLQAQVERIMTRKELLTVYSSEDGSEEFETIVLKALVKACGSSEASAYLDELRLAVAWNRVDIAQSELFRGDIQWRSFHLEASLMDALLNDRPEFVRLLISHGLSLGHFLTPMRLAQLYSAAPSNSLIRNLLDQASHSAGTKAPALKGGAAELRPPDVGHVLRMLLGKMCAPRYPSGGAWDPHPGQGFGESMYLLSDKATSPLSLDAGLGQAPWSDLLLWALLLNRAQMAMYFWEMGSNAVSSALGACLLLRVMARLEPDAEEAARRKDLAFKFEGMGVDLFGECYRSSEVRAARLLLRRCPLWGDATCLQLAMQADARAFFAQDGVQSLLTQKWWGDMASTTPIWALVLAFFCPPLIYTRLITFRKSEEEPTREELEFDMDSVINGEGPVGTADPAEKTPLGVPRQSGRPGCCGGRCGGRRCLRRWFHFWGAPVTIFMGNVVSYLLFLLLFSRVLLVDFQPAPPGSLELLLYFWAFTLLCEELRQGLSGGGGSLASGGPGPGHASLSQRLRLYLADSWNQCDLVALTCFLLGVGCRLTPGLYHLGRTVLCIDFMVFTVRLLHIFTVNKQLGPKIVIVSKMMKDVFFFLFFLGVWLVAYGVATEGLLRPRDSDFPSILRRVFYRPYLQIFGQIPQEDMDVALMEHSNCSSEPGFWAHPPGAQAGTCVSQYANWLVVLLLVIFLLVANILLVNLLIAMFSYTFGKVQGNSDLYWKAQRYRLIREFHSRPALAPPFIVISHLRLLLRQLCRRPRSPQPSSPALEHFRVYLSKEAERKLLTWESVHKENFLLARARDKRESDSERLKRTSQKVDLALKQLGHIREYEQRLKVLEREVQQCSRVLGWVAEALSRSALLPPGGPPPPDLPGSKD

## COc1ccc(Cl)cc1C(=O)NCCc1ccc(S(=O)(=O)NC(=O)NC2CCCCC2)cc1 [glibenclamide]
TRPM4
  TRPM4 inhibition: effectively inhibit TRPM4
WT EAE mice [1]; P<0.01
  number of axons in the corticospinal tract: preservation of axons
WT EAE mice [1]; P<0.05
  number of axons in the dorsal column: preservation of axons
WT EAE mice [1]; did not reach statistical significance
  neuronal cell body loss in the gray matter of the spinal cord: slightly diminished
Trpm4−/− EAE mice
  clinical disability (mean clinical disability score): no additional clinical improvement
WT EAE mice [2]
  clinical disability (mean clinical disability score): ameliorated disability
